Results: PubChem BioAssay AID1259407 (Chemical Carcinogenesis Research Information System (CCRIS), 2018)
Active and inactive are the calls of the source. No rule for the calls is given here.

System: CCRIS mutagenicity, Ames/micronucleus/aberration tests
Test: CCRIS mutagenicity studies
[1] = Test System: AMES SALMONELLA TYPHIMURIUM, Strain/Indicator: TA97A, Metabolic Activation: NONE, Method: PREINCUBATION
[2] = Test System: AMES SALMONELLA TYPHIMURIUM, Strain/Indicator: TA98, Metabolic Activation: NONE, Method: PREINCUBATION
[3] = Test System: AMES SALMONELLA TYPHIMURIUM, Strain/Indicator: TA98, Metabolic Activation: RAT, LIVER, S-9, AROCLOR 1254, Method: STANDARD PLATE
[4] = Test System: AMES SALMONELLA TYPHIMURIUM, Strain/Indicator: TA100, Metabolic Activation: NONE, Method: PREINCUBATION
[5] = Test System: AMES SALMONELLA TYPHIMURIUM, Strain/Indicator: TA102, Metabolic Activation: NONE, Method: PREINCUBATION
[6] = Test System: AMES SALMONELLA TYPHIMURIUM, Strain/Indicator: TA97, Metabolic Activation: NONE, Method: PREINCUBATION
[7] = Test System: AMES SALMONELLA TYPHIMURIUM, Strain/Indicator: TA98, Metabolic Activation: HAMSTER, LIVER, S-9, AROCLOR 1254 (10%), Method: PREINCUBATION
[8] = Test System: AMES SALMONELLA TYPHIMURIUM, Strain/Indicator: TA98, Metabolic Activation: RAT, LIVER, S-9, AROCLOR 1254 (10%), Method: PREINCUBATION
[9] = Test System: AMES SALMONELLA TYPHIMURIUM, Strain/Indicator: TA100, Metabolic Activation: HAMSTER, LIVER, S-9, AROCLOR 1254 (10%), Method: PREINCUBATION
[10] = Test System: AMES SALMONELLA TYPHIMURIUM, Strain/Indicator: TA100, Metabolic Activation: RAT, LIVER, S-9, AROCLOR 1254 (10%), Method: PREINCUBATION
[11] = Test System: AMES SALMONELLA TYPHIMURIUM, Strain/Indicator: TA1535, Metabolic Activation: HAMSTER, LIVER, S-9, AROCLOR 1254 (10%), Method: PREINCUBATION
[12] = Test System: AMES SALMONELLA TYPHIMURIUM, Strain/Indicator: TA1535, Metabolic Activation: NONE, Method: PREINCUBATION
[13] = Test System: AMES SALMONELLA TYPHIMURIUM, Strain/Indicator: TA1535, Metabolic Activation: RAT, LIVER, S-9, AROCLOR 1254 (10%), Method: PREINCUBATION
[14] = Test System: AMES SALMONELLA TYPHIMURIUM, Strain/Indicator: TA1537, Metabolic Activation: NONE, Method: PREINCUBATION

For `Cc1ccc2nc3c(ccc4ccccc43)c(C)c2c1`, which mutagenic call [1] is on record?
Its mutagenic call is “inactive; negative”.

What about the mutagenic call [2] of the same molecule?
The mutagenic call was “inactive; negative”.

What about the mutagenic call [3] of the same molecule?
Its mutagenic call is “active; positive”.

What about the mutagenic call [4] of the same molecule?
Its mutagenic call is “inactive; negative”.

And the mutagenic call (Test System: AMES SALMONELLA TYPHIMURIUM, Strain/Indicator: TA100, Metabolic Activation: RAT, LIVER, S-9, AROCLOR 1254, Method: STANDARD PLATE)?
Its mutagenic call is “active; positive”.

And the mutagenic call [5]?
The mutagenic call was “active; positive”.

And the mutagenic call (Test System: E. COLI, Strain/Indicator: WP2 UVRA, Metabolic Activation: HAMSTER, LIVER, S-9, AROCLOR 1254, Method: STANDARD PLATE)?
The mutagenic call was “inactive; negative”.

What about the mutagenic call (Test System: E. COLI, Strain/Indicator: WP2 UVRA, Metabolic Activation: HAMSTER, LIVER, S-9, Method: STANDARD PLATE) of the same molecule?
The mutagenic call was “inactive; negative”.

What about the mutagenic call (Test System: E. COLI, Strain/Indicator: WP2 UVRA, Metabolic Activation: MOUSE, LIVER, S-9, AROCLOR 1254, Method: STANDARD PLATE) of the same molecule?
Its mutagenic call is “inactive; negative”.

What about the mutagenic call (Test System: E. COLI, Strain/Indicator: WP2 UVRA, Metabolic Activation: MOUSE, LIVER, S-9, Method: STANDARD PLATE) of the same molecule?
Its mutagenic call is “inactive; negative”.

And the mutagenic call (Test System: E. COLI, Strain/Indicator: WP2 UVRA, Metabolic Activation: NONE, Method: STANDARD PLATE)?
Its mutagenic call is “inactive; negative”.

And the mutagenic call (Test System: E. COLI, Strain/Indicator: WP2 UVRA, Metabolic Activation: RAT, LIVER, S-9, AROCLOR 1254, Method: STANDARD PLATE)?
Its mutagenic call is “inactive; negative”.

What about the mutagenic call (Test System: E. COLI, Strain/Indicator: WP2 UVRA, Metabolic Activation: RAT, LIVER, S-9, Method: STANDARD PLATE) of the same molecule?
The mutagenic call was “inactive; negative”.

Which mutagenic call [6] does the source give for `CC(C)(CO)[C@@H](O)C(=O)NCCC(=O)O` here?
The mutagenic call was “inactive; negative”.

What about the mutagenic call (Test System: AMES SALMONELLA TYPHIMURIUM, Strain/Indicator: TA97, Metabolic Activation: RAT, LIVER, S-9, AROCLOR 1254, Method: PREINCUBATION) of the same molecule?
The mutagenic call was “inactive; negative”.

What about the mutagenic call [1] of the same molecule?
Its mutagenic call is “inactive; negative”.

What about the mutagenic call (Test System: AMES SALMONELLA TYPHIMURIUM, Strain/Indicator: TA97A, Metabolic Activation: RAT, LIVER, S-9, AROCLOR 1254, Method: PREINCUBATION) of the same molecule?
Its mutagenic call is “inactive; negative”.

And the mutagenic call [5]?
The mutagenic call was “inactive; negative”.

And the mutagenic call (Test System: AMES SALMONELLA TYPHIMURIUM, Strain/Indicator: TA102, Metabolic Activation: RAT, LIVER, S-9, AROCLOR 1254, Method: PREINCUBATION)?
Its mutagenic call is “inactive; negative”.

What does the source list for `CCCCCCC=O`?
mutagenic call (Test System: AMES SALMONELLA TYPHIMURIUM, Strain/Indicator: TA97, Metabolic Activation: HAMSTER, LIVER, S-9, AROCLOR 1254 (10%), Method: PREINCUBATION): inactive; negative; mutagenic call (Test System: AMES SALMONELLA TYPHIMURIUM, Strain/Indicator: TA97, Metabolic Activation: HAMSTER, LIVER, S-9, AROCLOR 1254 (30%), Method: PREINCUBATION): inactive; negative; mutagenic call [6]: inactive; negative; mutagenic call (Test System: AMES SALMONELLA TYPHIMURIUM, Strain/Indicator: TA97, Metabolic Activation: RAT, LIVER, S-9, AROCLOR 1254 (10%), Method: PREINCUBATION): inactive; negative; mutagenic call (Test System: AMES SALMONELLA TYPHIMURIUM, Strain/Indicator: TA97, Metabolic Activation: RAT, LIVER, S-9, AROCLOR 1254 (30%), Method: PREINCUBATION): inactive; negative; mutagenic call [7]: inactive; negative; mutagenic call (Test System: AMES SALMONELLA TYPHIMURIUM, Strain/Indicator: TA98, Metabolic Activation: HAMSTER, LIVER, S-9, AROCLOR 1254 (30%), Method: PREINCUBATION): inactive; negative; mutagenic call [2]: inactive; negative; mutagenic call [8]: inactive; negative; mutagenic call (Test System: AMES SALMONELLA TYPHIMURIUM, Strain/Indicator: TA98, Metabolic Activation: RAT, LIVER, S-9, AROCLOR 1254 (30%), Method: PREINCUBATION): inactive; negative; mutagenic call [9]: inactive; negative; mutagenic call (Test System: AMES SALMONELLA TYPHIMURIUM, Strain/Indicator: TA100, Metabolic Activation: HAMSTER, LIVER, S-9, AROCLOR 1254 (30%), Method: PREINCUBATION): inactive; negative; mutagenic call [4]: inactive; negative; mutagenic call [10]: inactive; negative; mutagenic call (Test System: AMES SALMONELLA TYPHIMURIUM, Strain/Indicator: TA100, Metabolic Activation: RAT, LIVER, S-9, AROCLOR 1254 (30%), Method: PREINCUBATION): inactive; negative; mutagenic call [11]: inactive; negative; mutagenic call (Test System: AMES SALMONELLA TYPHIMURIUM, Strain/Indicator: TA1535, Metabolic Activation: HAMSTER, LIVER, S-9, AROCLOR 1254 (30%), Method: PREINCUBATION): inactive; negative; mutagenic call [12]: inactive; negative; mutagenic call [13]: inactive; negative; mutagenic call (Test System: AMES SALMONELLA TYPHIMURIUM, Strain/Indicator: TA1535, Metabolic Activation: RAT, LIVER, S-9, AROCLOR 1254 (30%), Method: PREINCUBATION): inactive; negative; mutagenic call (Test System: AMES SALMONELLA TYPHIMURIUM, Strain/Indicator: TA1537, Metabolic Activation: HAMSTER, LIVER, S-9, AROCLOR 1254 (30%), Method: PREINCUBATION): inactive; negative; mutagenic call [14]: inactive; negative; mutagenic call (Test System: AMES SALMONELLA TYPHIMURIUM, Strain/Indicator: TA1537, Metabolic Activation: RAT, LIVER, S-9, AROCLOR 1254 (30%), Method: PREINCUBATION): inactive; negative

Which results are given for `CNC(=O)Oc1ccc(-c2ccccc2)cc1`?
mutagenic call [3]: inactive; negative; mutagenic call (Test System: AMES SALMONELLA TYPHIMURIUM, Strain/Indicator: TA1535, Metabolic Activation: RAT, LIVER, S-9, AROCLOR 1254, Method: STANDARD PLATE): active; positive

For `ClNc1ccc2c(c1)Cc1ccccc1-2`, which mutagenic call [3] is on record?
Its mutagenic call is “active; positive”.

`CCCCCN(CCCC)N=O` was tested. Which mutagenic call (Test System: AMES SALMONELLA TYPHIMURIUM, Strain/Indicator: TA100, Metabolic Activation: RAT, LIVER, S-9, KC500 OR PHENOBARBITAL, Method: LIQUID SUSPENSION) did it give?
The mutagenic call was “active; positive”.

With `CC(C)CN` as the molecule, how does the mutagenic call [7] read?
The mutagenic call was “inactive; negative”.

What about the mutagenic call [2] of the same molecule?
The mutagenic call was “inactive; negative”.

And the mutagenic call [8]?
The mutagenic call was “inactive; negative”.

What about the mutagenic call [9] of the same molecule?
The mutagenic call was “inactive; negative”.

What about the mutagenic call [4] of the same molecule?
Its mutagenic call is “inactive; negative”.

What about the mutagenic call [10] of the same molecule?
Its mutagenic call is “inactive; negative”.

What about the mutagenic call [11] of the same molecule?
Its mutagenic call is “inactive; negative”.

And the mutagenic call [12]?
The mutagenic call was “inactive; negative”.

What about the mutagenic call [13] of the same molecule?
Its mutagenic call is “inactive; negative”.

And the mutagenic call (Test System: AMES SALMONELLA TYPHIMURIUM, Strain/Indicator: TA1537, Metabolic Activation: HAMSTER, LIVER, S-9, AROCLOR 1254 (10%), Method: PREINCUBATION)?
The mutagenic call was “inactive; negative”.

And the mutagenic call [14]?
The mutagenic call was “inactive; negative”.

And the mutagenic call (Test System: AMES SALMONELLA TYPHIMURIUM, Strain/Indicator: TA1537, Metabolic Activation: RAT, LIVER, S-9, AROCLOR 1254 (10%), Method: PREINCUBATION)?
The mutagenic call was “inactive; negative”.

What does the source list for `C/C=C1\CC(C)C(C)(OC(C)=O)C(=O)OCC2=C3C(CC[N+]3(C)C=C2)OC1=O` (stereo not given)?
mutagenic call (Test System: AMES SALMONELLA TYPHIMURIUM, Strain/Indicator: TA100, Metabolic Activation: HAMSTER, LIVER, S-9, PCB, Method: PREINCUBATION): active; positive; mutagenic call (Test System: AMES SALMONELLA TYPHIMURIUM, Strain/Indicator: TA100, Metabolic Activation: RAT, LIVER, S-9, PCB, Method: PREINCUBATION): active; positive
